Columns and labels:
participants with ET [1] = assay: Phase 2 trial: Clinical Global Impression-Improvement (CGI-I); format: in vivo, human
Source text: The Clinical Global Impression-Improvement (CGI-I) (Guy 1976) assesses the clinician's impression of the participant's functioning prior to and after initiating study medication. The clinician should use his/her total clinical experience with this patient population and rate the current severity of the participant's essential tremor symptoms on a 7-point scale from 1 (Normal, not at all ill) to 7 (Among the most extremely ill patients). Accordingly, in some embodiments, the methods of the present invention result in a decrease in CGI-I score compared to baseline, e.g., prior to treatment. Key safety measures included clinical laboratory evaluations, 12-lead ECG, C-SSRS, and vital signs. Key efficacy assessments included the TETRAS Performance subscale, TETRAS Upper Limb using accelerometry, CGI, and PGI-C. Blood samples were obtained for the determination of study drug plasma concentrations using a validated bioanalytical method and may also be used for method development and/or metabolite characterization. In both phases, key safety measures included clinical laboratory evaluations, 12-lead ECG, C-SSRS, and vital signs. Key efficacy assessments included the TETRAS Performance subscale, TETRAS Upper Limb using accelerometry, CGI, PGI-C, TETRAS ADL Subscale, QUEST, BDI-II, and BAI. Blood samples were obtained for the determination of study drug and metabolite plasma concentrations.

[2] = test system: rat spontaneous locomotor activity (sLMA); assay: Rat spontaneous locomotor activity (sLMA) assay; format: in vivo; settings: rats, 0-30 min; compound of Formula (I) 1 mg/kg p.o., propranolol 1 or 3 mg/kg i.p., alone or in combination
Experimental: […] Rat sLMA was measured from 0-30 min (0 minutes is 60 minutes after administration of the compound of Formula (I) and 20 minutes after administration of propranolol).

participants with ET [3] = assay: Phase 2 trial Part B: Quality of Life in Essential Tremor Questionnaire (QUEST); format: in vivo, human; settings: pre-dose baseline to Day 56, participants receiving study drug
Source text: (§1) In both phases, key safety measures included clinical laboratory evaluations, 12-lead ECG, C-SSRS, and vital signs. Key efficacy assessments included the TETRAS Performance subscale, TETRAS Upper Limb using accelerometry, CGI, PGI-C, TETRAS ADL Subscale, QUEST, BDI-II, and BAI. Blood samples were obtained for the determination of study drug and metabolite plasma concentrations.

participants with ET [4] = assay: Phase 2 trial Part B: Beck Anxiety Inventory (BAI); format: in vivo, human
Experimental: The Beck Anxiety Index (BAI) is a brief measure of anxiety with a specific attention on somatic symptoms of anxiety that was developed as a measure aimed at discriminating between anxiety and depression (Beck et al 1988). The BAI contains 21 questions about the common symptoms of anxiety that the subject could have experienced during the past week (including the day the BAI is administered). The common symptoms of anxiety include numbness and tingling, sweating not due to heat, and fear of the worst happening. It is designed for individuals who are of 17 years of age or older and takes 5 to 10 minutes to complete. Each answer is scored on a scale value of 0 (not at all) to 3 (severely). Higher total scores indicate more severe anxiety symptoms. The standardized cutoffs are the following: 0-7: minimal, 8-15: mild, 16-25: moderate, 26-63: severe.
as §1

[5] = Part B OLT (FAS), Day 7, n = 13
[6] = Part B OLT (FAS), Day 21, n = 12
[7] = Part B OLT (FAS), Day 42, n = 11
[8] = Part B RWD (RWAS), Day 56, Study drug, n = 6
[9] = Part B RWD (RWAS), Day 70, Study drug, n = 5

CC(C)(C)NC(=O)CN1CCC(CNC(=O)c2cc(F)cc(Cl)c2)CC1.Cl [Study drug]
CGI-I Score 5 minimally worse (participants with ET [1]; Part B OLT (FAS), Day 7, n = 12): 1 n (%)
CGI-I Score 5 minimally worse (participants with ET [1]; Part B RWD (RWAS), Day 70, study drug group, n = 5, vs randomization baseline): 1 n (%)
total sLMA (total distance travelled) [2]: do not significantly reduce
Quality of life measured by QUEST (participants with ET [3]): improved
BAI Score Mild (8-15) (participants with ET [4]; [5]): 3 n (%)
BAI Score Minimal (0-7) (participants with ET [4]; [5]): 7 n (%)
BAI Score Moderate (16-25) (participants with ET [4]; [5]): 3 n (%)
BAI Score Severe (26-63) (participants with ET [4]; [5]): 0 n (%)
BAI Score Mild (8-15) (participants with ET [4]; [6]): 1 n (%)
BAI Score Minimal (0-7) (participants with ET [4]; [6]): 9 n (%)
BAI Score Moderate (16-25) (participants with ET [4]; [6]): 2 n (%)
BAI Score Severe (26-63) (participants with ET [4]; [6]): 0 n (%)
BAI Score Mild (8-15) (participants with ET [4]; [7]): 1 n (%)
BAI Score Minimal (0-7) (participants with ET [4]; [7]): 9 n (%)
BAI Score Moderate (16-25) (participants with ET [4]; [7]): 1 n (%)
BAI Score Severe (26-63) (participants with ET [4]; [7]): 0 n (%)
BAI Score Mild (8-15) (participants with ET [4]; [8]): 2 n (%)
BAI Score Minimal (0-7) (participants with ET [4]; [8]): 4 n (%)
BAI Score Moderate (16-25) (participants with ET [4]; [8]): 0 n (%)
BAI Score Severe (26-63) (participants with ET [4]; [8]): 0 n (%)
BAI Score Mild (8-15) (participants with ET [4]; [9]): 0 n (%)
BAI Score Minimal (0-7) (participants with ET [4]; [9]): 4 n (%)
BAI Score Moderate (16-25) (participants with ET [4]; [9]): 0 n (%)
BAI Score Severe (26-63) (participants with ET [4]; [9]): 1 (20.0) n (%)
change in BAI scores (participants with ET [4]; Part B open-label titration phase): shift in BAI scores from mild to minimal anxiety
